# From US5340920A, “Physiologically active porcine peptide (CNP-53)” (Matsuo; Hisayuki, priority 1990, dated 1994)
# B1: pBNP-26: porcine brain natriuretic peptide of 26 amino acid residues having a single S-S bond (peptide)
# peptide: HPLGGAGLASELPGIQELLDRLRDRVSELQAERTDLEPLRQDRGLTEAWEAREAAPTGVLGPRSSIFQVLRGIRSPKTMRDSGCFGRRLDRIGSLSGLGCNVLRRY
# How the values were obtained:
# [1] = test system: rats; details: administered to rats; Japanese Patent Application No. 105047/1990; cited from earlier work
# [2] = test system: chick rectum; assay: Chick rectum relaxant activity (method of Currie et al.); details: assay system of Currie et al.; compared with CNP-22
# Procedure: The chick rectum relaxant activity of CNP-53 was measured in accordance with the method of Currie et al. (Currie et al., […]).
# [3] = Diuretic and natriuretic actions of the purified peptide; type: in vivo; details: no method described
# [4] = test system: anti-CNP-22 antiserum (antibody #171-4); assay: RIA system using anti-CNP-22 antiserum #171-4 and I125 labelled [Tyr0] CNP-22; type: binding, rabbit; details: for cross-reactivity of antibody #171-4: RIA, CNP-22 as standard
# Procedure: Six milligrams of chemically synthesized CNP-22 and 15 mg of bovine thyroglobulin (product of Sigma Co.) were dissolved in 2 ml of 0.1M phosphate buffer (pH 7.4). To the solution, 100 μl of 5% glutaraldehyde was added and the mixture was agitated at 0° C. for 20 min to have CNP-22 bound to the thyroglobulin. Then, the solution was dialyzed five times against water (500 ml) and twice against 500 ml of 50 mM phosphate buffer (pH 7.4) containing 80 mM NaCl, whereby excess salts and reagents were removed from the reaction solution. Subsequently, 50 mM phosphate buffer containing 80 mM NaCl was added to the reaction solution to make a total volume of 12 ml. Thereafter, an equal volume of Freund's complete adjuvant was added to form an emulsion. A rabbit (New Zealand White) was repeatedly immunized with the emulsion at 20-day intervals so as to prepare an anti-CNP-22 antiserum. The thus prepared antiserum was named "#171-4".
# In the first step, [Tyr°] CNP-22 [a peptide having a tyrosine residue (Tyr) added to the N-terminus of CNP-22] was chemically synthesized. Then, I^125 was introduced into the N-terminal Tyr residue by the method of Miyata et al. (Miyata, A. et al., Biochem. Biophys. Res. Commun., 129, 248-255, 1985) and the I^125 labelled monoiodo(Tyr°] CNP-22 was separated and isolated by reverse-phase HPLC.
# In the next step, an RIA system was constructed by the following method using the thus I125 labelled [Tyr°] CNP-22 and the antibody (#171-4) prepared in Example 1-A.
# As a buffer for the RIA system, 50 mM phosphate buffer (pH 7.4) containing 80 mM NaCl, 0.1% Triton X-100, 25 mM EDTA, 0.05% NaN3, 3.1% dextran T-40 and 0.25% BSA (as treated with N-ethylmaleimide) was used. A standard CNP-22 solution or assay sample (100 μl) and the antibody #171-4 prepared in Example 1-A (100 μl of a 60,000-fold dilution) were added to the buffer and the mixture was subjected to reaction at 4° C. for 24 h. […] Thereafter, polyethylene glycol was added and the radioactivity of the resulting precipitate was measured with a gamma-counter (ARC-600 of Aloka Co.).
molecule,measurement,setting,value
"CNP-22: C-type natriuretic peptide of 22 amino acid residues from porcine brain, single S-S bond, no C-terminal tail (GLSKGCFGLKLDRIGSMSGLGC)",natriuretic and hypotensive actions,[1],natriuretic and hypotensive actions
"CNP-53: novel porcine brain peptide of 53 amino acid residues containing CNP-22 at the C-terminus, intramolecular S-S bond Cys37-Cys53 (DLRVDTKSRAAWARLLHEHPNARKYKGGNKKGLSKGCFGLKLDRIGSMSGLGC)",chick rectum relaxant activity,[2],comparable chick rectum relaxant activity to CNP-22
same,diuretic and natriuretic actions,[3],diuretic and natriuretic actions
same,immunoreactivity per molecule with the anti-CNP-22 antiserum,"[4]; RIA of Example 1, assuming 53 residues containing CNP-22 at the C-terminus, compared with CNP-22",comparable to that of CNP-22
"α-ANP: α-type atrial natriuretic peptide, single-stranded peptide of 28 amino acids with a single S-S bond [reference compound]",cross-reactivity of antibody #171-4,[4],0.015%
B1,cross-reactivity of antibody #171-4,[4],0.46%
